Laboratory results taken from patent publication US20210253598A1, “ARYL ANNULATED MACROCYCLIC INDOLE DERIVATIVES” (priority 2017, published 2021).
pIC50: −log10 of the molar value. “And” between values parts separate entries of the source, which are not always exact repeats. Equal entries are not always repeated. Structures can show the parent of a compound that is named as a salt. Where two headings read alike, the source gives them in different places.

How the values were obtained:
A2780 = experiment: Anti-proliferative effect in A2780 cells, CellTiter-Glo (Assay 7); assay type: cell-based; conditions: A2780, 72 hours incubation, CellTiter-Glo, several values per example, read-out: Antiproli A2780
Protocol: (§1) Assessment of the Anti-Proliferative Effect of Compounds in Different Cell Lines
(§2) The impact of compounds on the proliferation of different cell lines was assessed using the CellTiter-Glo® Luminescent Cell Viability reagent from Promega (G7573).
(§3) In parallel, cells were plated in a reference (day 0) plate for time zero determination. Cells were incubated in a humidified incubator at 37° C. overnight.
(§4) Rim wells were excluded. The cells were incubated for 72 hours in a humidified incubator at 37° C. The day 0 plate was measured by adding 30 μL/well of CTG solution (CellTiter-Glo® Luminescent Cell Viability reagent, Promega G7573) to time zero wells in the reference plate followed by a 10 minutes incubation and luminescence reading at 0.1 ms. using the PHERAstar FS microplate reader (BMG Labtech).
(§5) After 72 hours incubation, the treated plates were measured in the same way as the day 0 plate mentioned above. The Bella DRC Master Sheet was used to calculate IC50s, with CI=day 0 values and C0=DMSO control values.

SUDHL5 [1] = experiment: Induction of cytotoxicity in SUDHL5 cells, CellTiter-Glo (Assay 6); assay type: cell-based; conditions: Homo sapiens, SU-DHL-5, 5 h, SUDHL5, 5 hours incubation, median, read-out: Cytotox SUDHL5 [M] (median)
Protocol: (§6) Induction of Cytotoxicity Upon Treatment of Cells with Selected Compounds
(§7) In principle, compounds that induce apoptosis will concomitantly induce cell cytotoxicity. Therefore, cytotoxicity assays were run in parallel in SUDHL5 and SUDHL10 cells.
(§8) As a control, medium without cells was also added to the plate. Cells were incubated in a humidified incubator at 37° C. overnight. […] Rim wells were excluded. The cells were incubated for 5 hours in a humidified incubator at 37° C. After this incubation, 30 μl of CellTiter-Glo® Luminescent Cell Viability reagent (Promega, G7573) was added to each well using the Multidrop Combi Reagent Dispenser, followed by 15 minutes incubation on a shaker at room temperature. Finally, luminescence was read at 0.1 ms, with a gain of 3000 using the PHERAstar FS microplate reader (BMG Labtech).

SUDHL5 [2] = experiment: Anti-proliferative effect in SUDHL5 cells, CellTiter-Glo (Assay 7); assay type: cell-based; conditions: SUDHL5, 72 hours incubation, CellTiter-Glo, median, read-out: Antiproli SUDHL5 [M] (median)
Protocol: as §1, §2, §3, §4, §5

SUDHL5 [3] = experiment: Induction of caspase-3/7 activity in SUDHL5 cells (Assay 4); assay type: cell-based; conditions: SUDHL5, 3 hours treatment, Caspase-Glo 3/7, median, read-out: Caspase SUDHL5 [M] (median)
Protocol: (§9) Induction of Caspase-3/7 Activity Upon Treatment of Cells with Selected Compounds
(§10) The BH3-domain of MCL-1 sequesters pro-apoptotic proteins, thereby inhibiting apoptosis. In contrast, MCL-1 inhibitors are expected to antagonize this effect leading to an increase in apoptosis, which can be determined by measuring the activity of caspase-3/7.
(§11) The activity of caspase-3/7 was determined in DLBCL (Diffuse large B-cell lymphoma) cell lines (SUDHL5 and SUDHL10) upon treatment with different compounds, using the Caspase-Glo® 3/7 reagent from Promega (G8092).
(§12) As a control, medium without cells was also added to the plate. Cells were incubated in a humidified incubator at 37° C. overnight.
(§13) Rim wells were excluded. The cells were incubated for 3 hours in a humidified incubator at 37° C. After this incubation, 30 μl of Caspase-Glo® 3/7 reagent (Promega G8092) was added to each well using the Multidrop Combi Reagent Dispenser, followed by 1 hour incubation at 37° C. Finally, luminescence was read at 0.1 ms, with a gain of 3000 using the PHERAstar FS microplate reader (BMG Labtech).
(§14) For the evaluation of the results, the background measured with “medium-only” was subtracted from all other values. Then, the values were normalized to DMSO-only treated cells (every value was divided by the mean of the DMSO control).

MV-4-11 = experiment: Anti-proliferative effect in MV-4-11 cells, CellTiter-Glo (Assay 7); assay type: cell-based; conditions: MV-4-11, 72 hours incubation, CellTiter-Glo, several values per example, read-out: Antiproli MV-4-11
Protocol: as §1, §2, §3, §4, §5

SUDHL10 [4] = experiment: Induction of caspase-3/7 activity in SUDHL10 cells (Assay 4); assay type: cell-based; conditions: SUDHL10, 3 hours treatment, Caspase-Glo 3/7, median, read-out: Caspase SUDHL10 [M] (median)
Protocol: as §9, §10, §11, §12, §13, §14

SUDHL10 [5] = experiment: Induction of cytotoxicity in SUDHL10 cells, CellTiter-Glo (Assay 6); assay type: cell-based; conditions: SUDHL10, 5 hours incubation, median, read-out: Cytotox SUDHL10 [M] (median)
Protocol: as §6, §7, §8

MCL-1 = MCL-1 (Homo sapiens, UniProt Q07820, K194A/K197A/R201A); experiment: Protein-protein interaction assay MCL-1/Noxa BH3 peptide, TR-FRET (MCL-1 assay, Assay 1); assay type: binding; conditions: MBP-MCL-1 / Noxa BH3 peptide
MCL-1, sequence (Q07820 173-321 K194A/K197A/R201A, looked up): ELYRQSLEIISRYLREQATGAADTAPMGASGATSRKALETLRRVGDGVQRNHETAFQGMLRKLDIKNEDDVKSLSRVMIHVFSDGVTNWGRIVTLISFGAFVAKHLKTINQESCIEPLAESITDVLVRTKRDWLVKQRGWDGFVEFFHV
Protocol: The dose-dependent inhibition by the compounds described in this invention of the interaction between MCL-1 and the BH3 domain of Noxa (both human) was determined using a steady state binding competition assay with time-resolved fluorescence energy transfer (TR-FRET) readout. For that purpose MCL-1 (amino acids 173-321, N-terminal fused to Maltose Binding Protein (MBP), SEQ ID 1) and a synthetic Noxa BH3-derived peptide of sequence Biotin-PEG2-PEG2-PAELEVE-Nva-[…]-amide (SEQ ID 2) served as protein receptor and tracer ligand respectively. The MBP-MCL-1 was purchased from Beryllium (Bedford, Mass., USA). The expression and purification of this protein construct has been described elsewhere (DOI:10.1371/journal.pone.0125010). The Noxa BH3-derived peptide can be obtained from e.g. Biosyntan (Berlin, Germany).
For that, 100-fold concentrated DMSO solutions were prepared by serial dilutions (1:3.4) of a 2 mM stock solution in a clear, 384-well microtiter plate (Greiner Bio-One, Frickenhausen, Germany). From there, 50 nl were transferred in a dark test plate (Greiner Bio-One, Frickenhausen, Germany). The assay was initiated by addition of 2 μl of a 2,5-fold concentrated MBP-MCL-1 solution (usually for a 1 nM end concentration in 5 μl reaction volume) in aqueous assay buffer [50 mM Tris/HCl pH 7, 100 mM sodium chloride (NaCl), 50 mM potassium fluoride (KF), 0.005% Tween-20, 2 mM DTT, 0.1% bovine gamma globulin (BGG)] to the compounds in the assay plate. This was followed by a 10-minute incubation step at 22° C. for pre-equilibration of the putative complex between MBP-MCL-1 and the compounds.
The mixture was incubated in the dark for one hour at 22° C. and then overnight at 4° C. The formation of MCL-1/Noxa complexes was determined by measuring the resonance energy transfer of the anti-MBP-Eu-cryptate antibody to the streptavidin-XL665 present in the reaction.
The resulting data (ratio) were normalized, taking 0% inhibition as the mean value of control measurements (usually 32 data points) where all reagents were included. In this case 50 nl DMSO were used instead of compounds. […] IC50 values were determined by regression analysis based on a 4 parameter equation (minimum, maximum, IC50, Hill; Y=Max+(Min−Max)/(1+(X/IC50)^Hill) using the Screener Software (Genedata).

| SMILES | pIC50 (A2780) | pIC50 (A2780; Homo sapiens, A2780, 72 h) | IC50 (SUDHL5 [1]) | IC50 (SUDHL5 [2]; Homo sapiens, SU-DHL-5, 72 h) | EC50 (SUDHL5 [3]; Homo sapiens, SU-DHL-5, 3 h) | pIC50 (MV-4-11; Homo sapiens, MV4-11, 72 h) | pIC50 (MV-4-11) | EC50 (SUDHL10 [4]; Homo sapiens, SU-DHL10, 3 h) | IC50 (SUDHL10 [5]; Homo sapiens, SU-DHL10, 5 h) | IC50 (MCL-1; MCL-1 Assay [M] (median)) | pIC50 (A2780; Acetate Salt) | IC50 (SUDHL5 [2]) | EC50 (SUDHL5 [3]) | EC50 (SUDHL10 [4]) | IC50 (MCL-1; median, read-out: MCL-1 Assay [M] (median)) | IC50 (SUDHL10 [5]) |
| --- | --- | --- | --- | --- | --- | --- | --- | --- | --- | --- | --- | --- | --- | --- | --- | --- |
| Cc1c2c(nn1C)CNCc1ccccc1Cn1c(C(=O)O)c(CCCOc3cccc4ccccc34)c3cccc-2c31 (racemic) [Example 11, (rac)-4,5-Dimethyl-17-[3-(naphthalen-1-yloxy)propyl]-7,8,9,14-tetrahydro-5H-indolo[1,7-bc]pyrazolo[4,3-e][2,8]benzodiazacycloundecine-16-carboxylic Acid] | 4.91 | 4.93 | 5.6e-06 M | 7.2e-06 M | 5.6e-06 M | 5.12 | 5.13 | 1.6e-05 M | 1.5e-05 M | – | – | – | – | – | – | – |
| Cc1c2c(nn1C)CN(C)Cc1ccccc1Cn1c(C(=O)O)c(CCCOc3cccc4ccccc34)c3cccc-2c31 (racemic) [Example 14, (rac)-4,5,8-Trimethyl-17-[3-(naphthalen-1-yloxy)propyl]-7,8,9,14-tetrahydro-5H-indolo[1,7-bc]pyrazolo[4,3-e][2,8]benzodiazacycloundecine-16-carboxylic Acid] | – | 4.76 | 3e-06 M | 3.4e-06 M | 2.7e-06 M | 5.19 | – | 7.6e-06 M | 7e-06 M | 5.2e-09 M | – | – | – | – | – | – |
| Cc1c2c(nn1C)CN(S(=O)(=O)c1ccc(N3CCOCC3)nc1)Cc1ccccc1Cn1c(C(=O)O)c(CCCOc3cccc4ccccc34)c3cccc-2c31 (racemic) [Example 17, (rac)-4,5-Dimethyl-8-{[6-(morpholin-4-yl)pyridin-3-yl]sulfonyl}-17-[3-(naphthalen-1-yloxy)propyl]-7,8,9,14-tetrahydro-5H-indolo[1,7-bc]pyrazolo[4,3-e][2,8]benzodiazacycloundecine-16-carboxylic Acid Acetate Salt] | – | 5.31 | 3.1e-06 M | 3.9e-06 M | 3e-06 M | – | – | 8.5e-06 M | 1.4e-05 M | 3.4e-08 M | 5.24 | – | – | – | – | – |
| COc1cc(CNC(=O)N2Cc3ccccc3Cn3c(C(=O)O)c(CCCOc4cccc5ccccc45)c4cccc(c43)-c3c(nn(C)c3C)C2)cc(OC)c1OC (racemic) [Example 20, (rac)-4,5-Dimethyl-17-[3-(naphthalen-1-yloxy)propyl]-8-[(3,4,5-trimethoxybenzyl)carbamoyl]-7,8,9,14-tetrahydro-5H-indolo[1,7-bc]pyrazolo[4,3-e][2,8]benzodiazacycloundecine-16-carboxylic Acid] | – | 4.86 | > 3.3e-05 M | 1.2e-05 M | > 3.3e-05 M | 4.97 | – | > 3.3e-05 M | > 3.3e-05 M | 1.8e-07 M | – | – | – | – | – | – |
| Cc1c2c(nn1C)COCc1ccccc1Cn1c(C(=O)O)c(CCCOc3cccc4ccccc34)c3ccc(F)c-2c31 (racemic) [Example 67, (rac)-15-Fluoro-13,14-dimethyl-1-(3-(naphthalen-1-yloxy)propyl)-4,9,11,13-tetrahydrobenzo[3,4]pyrazolo[4′,3′:9,10][1,6]oxaazacycloundecino[8,7,6-hi]indole-2-carboxylic Acid] | – | 4.69 | 1.8e-06 M | 2.4e-06 M | 2.2e-06 M | 5.51 | – | 5.9e-06 M | 4.9e-06 M | – | – | – | – | – | – | – |
| CCc1c2c(nn1C)COCc1ccccc1Cn1c(C(=O)O)c(CCCOc3cccc4ccccc34)c3ccc(F)c-2c31 (racemic) [Example 70, (rac)-14-Ethyl-15-fluoro-13-methyl-1-(3-(naphthalen-1-yloxy)propyl)-4,9,11,13-tetrahydrobenzo[3,4]pyrazolo[4′,3′:9,10][1]oxa[6]azacycloundecino[8,7,6-hi]indole-2-carboxylic Acid] | 4.64 and 4.65 | – | – | – | – | – | 5.62 and 5.64 | – | – | – | – | 2.2e-06 M | 1.6e-06 M | 8.6e-06 M | 2.1e-09 M | 6.1e-06 M |
| Cc1c2c(nn1C)COCc1cccnc1Cn1c(C(=O)O)c(CCCOc3cccc4ccccc34)c3cccc-2c31 [Example 04] | 4.51 and < 4.48 | – | – | – | – | – | – | – | – | – | – | – | – | – | – | – |
| Cc1c2c(nn1C)COCc1ncccc1Cn1c(C(=O)O)c(CCCOc3cccc4ccccc34)c3cccc-2c31 [Example 07] | 4.53 and < 4.48 | – | – | – | – | – | 5.29 and 5.26 | – | – | – | – | – | – | – | – | – |
